{
  "source": "patent US20240374626A1",
  "about": "“METHODS OF ENHANCING MILK PRODUCTION IN LACTATING MAMMALIAN SUBJECTS” (priority 2023, published 2024)",
  "type_in_all_cases": "in vivo, mouse",
  "key": {"γH2AX": {"test_system": "γH2AX", "experiment": "Contralateral intraductal injection: γH2AX IHC in CK8+ luminal cells of MG", "settings": "Hydroxyurea IDI at PD8.5 and PD12.5 vs contralateral PBS, at PD13.5", "method": "(§1) Nulliparous analysis was performed using adult (10-12-week-old) female mice. For timed pregnancies and lactation analysis, CD-1 pregnant adult females were obtained from Charles Rivers. Embryos were examined at the time of mammary gland harvesting to confirm pregnancy state. […] Plugged mice were considered to be PD0.5 on the day of the observed plug. All females used in this study were age matched.\n(§2) Mice were anesthetized with isoflurane (VetOne, 501017) Prior to intraductal injections, hair was removed from around the nipples using Nair hair remover. Injections into the duct of the nipple were performed with 33 G needles (Hamilton, 7803-05) and a volume of 40 μl per gland. Right inguinal, abdominal and thoracic glands were injected with doxorubicin (1.5 μg per gland, Cayman Chemical, 15007), nucleosides (40 μl per gland, Millipore-Sigma, ES-008-D) or Mk-1775 (50 μg per gland, Cayman Chemical, 21266), and left glands were injected with PBS or DMSO (Thermo Scientific, BP231) diluted in PBS.\n(§3) Mammary gland tissue was fixed in 10% neutral buffered formalin (EMD Millipore, MR0458682) at 4° C. overnight. Fixation was quenched using 0.2% glycine (Fisher Scientific, BP381) in PBS, for 1 h at room temperature. […] Integrated density of nuclear γH2AX and pATR was quantified using ImageJ."}, "pATR": {"test_system": "pATR", "experiment": "Contralateral intraductal injection: pATR IHC in CK8+ luminal cells of MG", "settings": "Hydroxyurea IDI at PD8.5 and PD12.5 vs contralateral PBS, at PD13.5", "method": "as §1, §2, §3"}, "Csn2": {"test_system": "Csn2", "experiment": "Contralateral intraductal injection: Csn2 expression in MGs by RT-qPCR", "settings": "Hydroxyurea IDI at PD8.5 and PD12.5 vs contralateral PBS, LD2 MGs", "method": "as §1, §2\nFor RNA isolation from FACS purified populations, mammary gland cell suspensions were blocked using Mouse BD Fc Block™ (BD Biosciences) for 10 min. Cells were subsequently resuspended on 1×PBS at a density of 10^7 cells/ml and stained with the following antibodies for 30 min on ice: anti-CD24 PE (Stem Cell Technologies, 60099PE.1), anti-CD29 PE-Cy7 (BioLegend, 102222), anti-CD45-APC (BioLegend,105826), Ter119-APC (BD Biosciences, 561033), CD31-ACP (BD Biosciences, 551262). Propidium iodide at a final concentration of 0.5 μg/ml was used for the discrimination of dead cells. Stromal, basal and luminal mammary populations were sorted using a BD FACS Aria II Cell Sorter. […] Total RNA quality was analyzed by agarose gel electrophoresis and quantified using an ND-1000 spectrophotometer (NanoDrop). cDNA was prepared from 500-1000 ng of total RNA using iScript cDNA synthesis kit (Bio-Rad, 1708841). Quantitative RT-qPCR was performed in triplicates using SsoAdvanced Universal SYBR Green Supermix, (Bio-Rad, 1725272). […]"}, "MG alveoli": {"test_system": "MG alveoli", "experiment": "Contralateral intraductal injection: milk staining (IHC) integrated density per alveolus", "settings": "Hydroxyurea IDI at PD8.5 and PD12.5 vs contralateral PBS, LD2 MG section", "method": "as §1\n(§4) Mice were anesthetized with isoflurane (VetOne, 501017) Prior to intraductal injections, hair was removed from around the nipples using Nair hair remover. Injections into the duct of the nipple were performed with 33 G needles (Hamilton, 7803-05) and a volume of 40 μl per gland. […]\nMammary gland tissue was fixed in 10% neutral buffered formalin (EMD Millipore, MR0458682) at 4° C. overnight. […] Incubation with secondary antibodies [(donkey anti-Rat 647 (Thermo-Invitrogen; A48272) and donkey anti-Rabbit 488 (Thermo-Invitrogen; A32790)] was performed for 2 h at room temperature. Sections were washed with 0.3% triton in PBS for 30 min (×3) at room temperature and mounted using flouromount-G (Southern Biotech, 0100-01). Image acquisition was performed using Zeiss Axio Imager Microscope. Macros were generated to quantify lumen milk integrated density per alveolus using Image J."}, "Wee1": {"test_system": "Wee1", "experiment": "Contralateral intraductal injection: Wee1 expression in whole MG tissue by RT-qPCR", "settings": "IDI of hydroxyurea into pregnant MG vs contralateral PBS", "method": "as §1, §4\nFor RNA isolation from FACS purified populations, mammary gland cell suspensions were blocked using Mouse BD Fc Block™ (BD Biosciences) for 10 min. […] Total RNA quality was analyzed by agarose gel electrophoresis and quantified using an ND-1000 spectrophotometer (NanoDrop). cDNA was prepared from 500-1000 ng of total RNA using iScript cDNA synthesis kit (Bio-Rad, 1708841). Quantitative RT-qPCR was performed in triplicates using SsoAdvanced Universal SYBR Green Supermix, (Bio-Rad, 1725272). […]"}, "CK8+ luminal cells": {"test_system": "CK8+ luminal cells", "experiment": "Contralateral intraductal injection: FACS DNA content analysis of CK8+ luminal cells", "settings": "Hydroxyurea IDI at PD8.5 and PD12.5 vs contralateral PBS, by LD5"}},
  "data": [
    {"smiles": "NC(=O)NO", "note": "[Hydroxyurea]", "values": [
      {"measurement": "γH2AX in CK8+ population", "setting": "γH2AX", "value": "increased"},
      {"measurement": "pATR in CK8+ population", "setting": "pATR", "value": "increased"},
      {"measurement": "Csn2 expression, RT-qPCR", "setting": "Csn2", "value": "increase"},
      {"measurement": "increase in milk (average integrated density of milk staining among alveoli)", "setting": "MG alveoli", "value": "~15", "unit": "%"},
      {"measurement": "Wee1 expression in whole MG tissue, RT-qPCR", "setting": "Wee1", "value": "upregulated"},
      {"measurement": "decrease in 2C CK8+ population (in the overall population)", "setting": "CK8+ luminal cells", "value": 5.5, "unit": "%"},
      {"measurement": "increase in 4C CK8+ population (in the overall population)", "setting": "CK8+ luminal cells", "value": 2, "unit": "%"},
      {"measurement": "increase in >4C CK8+ population (in the overall population)", "setting": "CK8+ luminal cells", "value": 48, "unit": "%"}
    ]}
  ]
}
